Data: US8669271B2 (Boehringer Ingelheim International GmbH, priority 2010, dated 2014)

target: T1, human GPR119 (Homo sapiens, UniProt Q8TDV5); assay: AlphaScreen cAMP assay in Min-6/hGPR119 cells (activation of GPR119, intracellular cAMP); assay type: cell-based; details: MIN6 cells stably transfected with human GPR119; cAMP by AlphaScreen after 45 minutes incubation at room temperature
T1 construct: expression vector for human GPR119 cDNA (Acc. No. NP_848566); expressed in transfected cells
T1 sequence (Q8TDV5 1-335): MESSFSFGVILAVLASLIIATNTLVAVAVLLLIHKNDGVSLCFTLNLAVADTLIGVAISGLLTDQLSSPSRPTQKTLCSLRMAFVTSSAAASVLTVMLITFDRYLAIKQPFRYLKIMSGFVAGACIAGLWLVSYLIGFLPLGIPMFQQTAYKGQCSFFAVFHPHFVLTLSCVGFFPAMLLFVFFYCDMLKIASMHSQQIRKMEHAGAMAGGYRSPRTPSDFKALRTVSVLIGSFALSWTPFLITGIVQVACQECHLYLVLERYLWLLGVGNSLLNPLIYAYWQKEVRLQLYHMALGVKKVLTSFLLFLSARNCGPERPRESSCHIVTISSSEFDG
Method in brief: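 MIN6 cells stably expressing human GPR119, seeded 24 h before treatment; compounds applied 45 min at ~20 °C in Hepes-buffered saline pH 7.4 with 0.5 mM IBMX, 0.1% BSA, 1% DMSO final. Intracellular cAMP measured by AlphaScreen.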

EC50 [nM]	SMILES
53	CC(C)(C)OC(=O)N1CCC(C2(C)Cc3cc(C4CCN(S(C)(=O)=O)CC4)ncc3O2)CC1 (stereo not shown) [Example 81, 4-[5-(1-Methanesulfonyl-piperidin-4-yl)-2-methyl-2,3-dihydro-furo[2,3-c]pyridin-2-yl]-piperidine-1-carboxylic acid tert-butyl ester]
21	CC(C)(C)OC(=O)N1CCC(C2(C)Cc3cc(-c4ccc(CS(C)(=O)=O)cc4F)ncc3O2)CC1 (stereo not shown) [Example 82]
4	CC(C)(C)OC(=O)N1CCC([C@]2(C)Cc3cc(-c4ccc(S(C)(=O)=O)cc4)ncc3O2)CC1 [Example 83, (S)-4-[5-(4-Methanesulfonyl-phenyl)-2-methyl-2,3-dihydro-furo[2,3-c]pyridin-2-yl]-piperidine-1-carboxylic acid tert-butyl ester]
172	CC(C)(C)OC(=O)N1CCC([C@@]2(C)Cc3cc(-c4ccc(S(C)(=O)=O)cc4)ncc3O2)CC1 [Example 84, (R)-4-[5-(4-Methanesulfonyl-phenyl)-2-methyl-2,3-dihydro-furo[2,3-c]pyridin-2-yl]-piperidine-1-carboxylic acid tert-butyl ester]
7	CC1(OC(=O)N2CCC([C@]3(C)Cc4cc(-c5ccc(S(C)(=O)=O)cc5)ncc4O3)CC2)CC1 [Example 85, (S)-4-[5-(4-Methanesulfonyl-phenyl)-2-methyl-2,3-dihydro-furo[2,3-c]pyridin-2-yl]-piperidine-1-carboxylic acid 1-methyl-cyclopropyl ester]
11	CC(C)OC(=O)N1CCC([C@]2(C)Cc3cc(-c4ccc(S(C)(=O)=O)cc4)ncc3O2)CC1 [Example 86, (S)-4-[5-(4-Methanesulfonyl-phenyl)-2-methyl-2,3-dihydro-furo[2,3-c]pyridin-2-yl]-piperidine-1-carboxylic acid isopropyl ester]
13	CC1(OC(=O)N2CCC([C@]3(C)Cc4cc(C5=CCN(S(C)(=O)=O)CC5)ncc4O3)CC2)CC1 [Example 88, (S)-4-[5-(1-Methanesulfonyl-1,2,3,6-tetrahydro-pyridin-4-yl)-2-methyl-2,3-dihydro-furo[2,3-c]pyridin-2-yl]-piperidine-1-carboxylic acid 1-methyl-cyclopropyl ester]
7	CC(C)OC(=O)N1CCC([C@]2(C)Cc3cc(C4=CCN(S(C)(=O)=O)CC4)ncc3O2)CC1 [Example 89, (S)-4-[5-(1-Methanesulfonyl-1,2,3,6-tetrahydro-pyridin-4-yl)-2-methyl-2,3-dihydro-furo[2,3-c]pyridin-2-yl]-piperidine-1-carboxylic acid isopropyl ester]
19	CC(C)(C)OC(=O)N1CCC(C2Cc3cc(N4CCN(S(C)(=O)=O)CC4)ncc3O2)CC1 (stereo not shown) [Example 90, 4-[5-(4-Methanesulfonyl-piperazin-1-yl)-2,3-dihydro-furo[2,3-c]pyridin-2-yl]-piperidine-1-carboxylic acid tert-butyl ester]
603	CC(C)(C)OC(=O)N1CCC(C2Cc3nc(N4CCN(S(C)(=O)=O)CC4)ncc3O2)CC1 (stereo not shown) [Example 91, 4-[2-(4-Methanesulfonyl-piperazin-1-yl)-6,7-dihydro-furo[3,2-d]pyrimidin-6-yl]-piperidine-1-carboxylic acid tert-butyl ester]
12	CC(C)(C)OC(=O)N1CCC(C2Cc3cc(C4=CCN(S(C)(=O)=O)CC4)ncc3O2)CC1 (stereo not shown) [Example 92, 4-[5-(1-Methanesulfonyl-1,2,3,6-tetrahydro-pyridin-4-yl)-2,3-dihydro-furo[2,3-c]pyridin-2-yl]-piperidine-1-carboxylic acid tert-butyl ester]
32	CC(C)(C)OC(=O)N1CCC(C2Cc3cc(C4CCN(S(C)(=O)=O)CC4)ncc3O2)CC1 (stereo not shown) [Example 93, 4-[5-(1-Methanesulfonyl-piperidin-4-yl)-2,3-dihydro-furo[2,3-c]pyridin-2-yl]-piperidine-1-carboxylic acid tert-butyl ester]
7	CC(C)(C)OC(=O)N1CCC(C2Cc3cc(C4=CCN(S(C)(=O)=O)CC4)ccc3O2)CC1 (stereo not shown) [Example 94, 4-[5-(1-Methanesulfonyl-1,2,3,6-tetrahydro-pyridin-4-yl)-2,3-dihydro-benzofuran-2-yl]-piperidine-1-carboxylic acid tert-butyl ester]
17	CC(C)OC(=O)N1CCC(C2Cc3cc(C4=CCN(S(C)(=O)=O)CC4)ncc3O2)CC1 (stereo not shown) [Example 95, 4-[5-(1-Methanesulfonyl-1,2,3,6-tetrahydro-pyridin-4-yl)-2,3-dihydro-furo[2,3-c]pyridin-2-yl]-piperidine-1-carboxylic acid isopropyl ester]
15	CS(=O)(=O)N1CC=C(c2cc3c(cn2)OC(C2CCN(C(=O)OC4CCC4)CC2)C3)CC1 (stereo not shown) [Example 96, 4-[5-(1-Methanesulfonyl-1,2,3,6-tetrahydro-pyridin-4-yl)-2,3-dihydro-furo[2,3-c]pyridin-2-yl]-piperidine-1-carboxylic acid cyclobutyl ester]
7	CC1(OC(=O)N2CCC(C3Cc4cc(C5=CCN(S(C)(=O)=O)CC5)ncc4O3)CC2)CC1 (stereo not shown) [Example 97, 4-[5-(1-Methanesulfonyl-1,2,3,6-tetrahydro-pyridin-4-yl)-2,3-dihydro-furo[2,3-c]pyridin-2-yl]-piperidine-1-carboxylic acid 1-methyl-cyclopropyl ester]
15	CCS(=O)(=O)N1CCN(c2cc3c(cn2)OC(C2CCN(C(=O)OC(C)(C)C)CC2)C3)CC1 (stereo not shown) [Example 98]
48	CC(C)S(=O)(=O)N1CCN(c2cc3c(cn2)OC(C2CCN(C(=O)OC(C)(C)C)CC2)C3)CC1 (stereo not shown) [Example 99, 4-{5-[4-(Propane-2-sulfonyl)-piperazin-1-yl]-2,3-dihydro-furo[2,3-c]pyridin-2-yl}-piperidine-1-carboxylic acid tert-butyl ester]
9	CCCS(=O)(=O)N1CCN(c2cc3c(cn2)OC(C2CCN(C(=O)OC(C)(C)C)CC2)C3)CC1 (stereo not shown) [Example 100, 4-{5-[4-(Propane-1-sulfonyl)-piperazin-1-yl]-2,3-dihydro-furo[2,3-c]pyridin-2-yl}-piperidine-1-carboxylic acid ten-butyl ester]
23	CC(C)(C)OC(=O)N1CCC(C2Cc3cc(N4CCN(S(=O)(=O)C5CC5)CC4)ncc3O2)CC1 (stereo not shown) [Example 101, 4-[5-(4-Cyclopropanesulfonyl-piperazin-1-yl)-2,3-dihydro-furo[2,3-c]pyridin-2-yl]-piperidine-1-carboxylic acid tert-butyl ester]

EC50 [nM]	SMILES
637	CN(C1CCN(c2cc3c(cn2)OC(C2CCN(C(=O)OC(C)(C)C)CC2)C3)CC1)S(C)(=O)=O (stereo not shown) [Example 102, 4-{5-[4-(Methanesulfonyl-methyl-amino)-piperidin-1-yl]-2,3-dihydro-furo[2,3-c]pyridin-2-yl}-piperidine-1-carboxylic acid tert-butyl ester]
186	CC(C)OC(=O)N1CCC(C2Cc3cc(-c4cccc(C#N)c4)ccc3O2)CC1 (stereo not shown) [Example 103, 4-[5-(3-Cyano-phenyl)-2,3-dihydro-benzofuran-2-yl]-piperidine-1-carboxylic acid isopropyl ester]
200	CC(=O)c1ccc(-c2ccc3c(c2)CC(C2CCN(C(=O)OC(C)C)CC2)O3)cc1 (stereo not shown) [Example 104]
99	CC(C)OC(=O)N1CCC(C2Cc3cc(-c4ccc(CC#N)cc4)ccc3O2)CC1 (stereo not shown) [Example 105]
1710	Cc1noc(C)c1-c1ccc2c(c1)CC(C1CCN(C(=O)OC(C)C)CC1)O2 (stereo not shown) [Example 106]
1120	CC(C)OC(=O)N1CCC(C2Cc3cc(-c4cccc(S(C)(=O)=O)c4)ccc3O2)CC1 (stereo not shown) [Example 107]
1980	COc1ncc(-c2ccc3c(c2)CC(C2CCN(C(=O)OC(C)C)CC2)O3)cn1 (stereo not shown) [Example 108]
28	CCNC(=O)c1ccc(-c2ccc3c(c2)CC(C2CCN(C(=O)OC(C)C)CC2)O3)cc1 (stereo not shown) [Example 109]
52	CC(C)OC(=O)N1CCC(C2Cc3cc(-c4ccc(S(N)(=O)=O)cc4)ccc3O2)CC1 (stereo not shown) [Example 110]
152	CC(C)OC(=O)N1CCC(C2Cc3cc(-c4ccc(C#N)c(F)c4)ccc3O2)CC1 (stereo not shown) [Example 111]
320	CC(C)OC(=O)N1CCC(C2Cc3cc(-c4cnc(C#N)nc4)ccc3O2)CC1 (stereo not shown) [Example 112]
167	CC(C)OC(=O)N1CCC(C2Cc3cc(-c4ccncc4F)ccc3O2)CC1 (stereo not shown) [Example 113]
527	COC(=O)c1ccc(-c2ccc3c(c2)CC(C2CCN(C(=O)OC(C)C)CC2)O3)cn1 (stereo not shown) [Example 114]
42	CC(C)OC(=O)N1CCC(C2Cc3cc(-c4ccc(S(C)(=O)=O)cc4F)ccc3O2)CC1 (stereo not shown) [Example 115]
770	COC(=O)c1cc(-c2ccc3c(c2)CC(C2CCN(C(=O)OC(C)C)CC2)O3)cs1 (stereo not shown) [Example 116]
374	CC(C)OC(=O)N1CCC(C2Cc3cc(-c4ccc(C(F)(F)F)nc4)ccc3O2)CC1 (stereo not shown) [Example 117]
15	CC(C)OC(=O)N1CCC(C2Cc3cc(-c4ccc(S(C)(=O)=O)c(F)c4)ccc3O2)CC1 (stereo not shown) [Example 118]
855	COc1cc(-c2ccc3c(c2)CC(C2CCN(C(=O)OC(C)C)CC2)O3)ccc1C#N (stereo not shown) [Example 119]
387	CC(C)OC(=O)N1CCC(C2Cc3cc(-c4ccc5c(cnn5C)c4)ccc3O2)CC1 (stereo not shown) [Example 120]
46	CC(C)OC(=O)N1CCC(C2Cc3cc(-c4ccc(NS(C)(=O)=O)cc4)ccc3O2)CC1 (stereo not shown) [Example 121]
